Source: patent US20220257542A1, “PHARMACEUTICAL COMPOSITION COMPRISING TRIMETHOBENZAMIDE OR PHARMACEUTICALLY ACCEPTABLE SALT THEREOF AS ACTIVE INGREDIENT FOR PREVENTING OR TREATING NEUROPATHIC PAIN” (FRONTBIO INC., priority 2019, published 2022)

Test system: neuropathy model mice
Experiment: Von Frey filament stimulation test in streptozotocin-induced neuropathy animal model
Assay type: in vivo, ICR mice
Settings: oral, 10, 20, 40 and 80 mg/kg in physiological saline; tested 1, 2, 3, 4 and 5 hours after administration; FIG. 1
Experimental: First, a neuropathy animal model was prepared by administering streptozocin. Specifically, streptozotocin was intraperitoneally administered to 4-week-old ICR mice at the concentration of 75 mg/kg. Five weeks after the administration, the expression of neuropathy was confirmed through the level of blood glucose and Von Frey filament stimulation tests, and the mice were used for the following experiments.
Specifically, trimethobenzamide was dissolved in physiological saline to prepare trimethobenzamide solutions with the concentrations of 10, 20, 40 and 80 mg/kg. The prepared trimethobenzamide solutions were orally administered to neuropathy model mice, and Von Frey filament stimulation test was performed 1, 2, 3, 4 and 5 hours after the administration to confirm the inhibitory effect on neuropathy.
Specifically, trimethobenzamide or tramadol was dissolved in physiological saline to prepare trimethobenzamide solution with the concentration of 60 mg/kg, or tramadol solution with the concentration of 20 mg/kg. After co-administration of the tramadol solution with the concentration of 20 mg/kg and the trimethobenzamide solution with the concentration of 20, 40 or 60 mg/kg solution, the effect of the co-administration was confirmed. […]

COc1cc(C(=O)NCc2ccc(OCCN(C)C)cc2)cc(OC)c1OC [trimethobenzamide]
inhibitory effect on neuropathy (pain), trimethobenzamide administered alone: significant effect on the inhibition of neuropathy in a concentration-dependent manner
